Measured values taken from patent US10905757B2, “Cross-reactive T cell epitopes of HIV, SIV, and FIV for vaccines in humans and cats” (priority 2012, dated 2021).
Entries after “also recorded” stand apart in the source; their conditions may differ.

What was measured:
[1] = tested on: PBMC from SIV-infected rhesus macaques; assay type: cell-based, rhesus macaque; conditions: macaques R395, R397, R416, R422
[2] = tested on: PBMC from FIV-vaccinated cats; experiment: IL2 ELISpot, PBMC from FIV-vaccinated cats (prototype vaccine, or prime plus MAP boosts); assay type: cell-based, cat; conditions: for IL2 (SFU): prime 1x IWV, post-second MAP boost, peptide or MAP as culture stimulant, >50 positive
Source text: (§1) Peptide Fp4-3 (left), peptide Fp14-1 (middle) and MAP1 [right] were culture stimulants. IL2 and IFNγ ELISpot results of >50 spot forming units (SFU/10^6 PBMC) and CFSE-proliferation of >2 are considered positive (bolded). The prime-boost vaccination induced IL2 responses in 3 of 4 cats and IFNγ response in one. Larger responses were induced by MAP1 than individual peptides in culture.

[3] = tested on: PBMC from FIV-vaccinated cats; experiment: IFNγ ELISpot, PBMC from FIV-vaccinated cats (prototype vaccine, or prime plus MAP boosts); assay type: cell-based, cat; conditions: for IFNγ (SFU): prime 1x IWV, post-second MAP boost, peptide or MAP as culture stimulant, >50 positive
Source text: as §1

[4] = tested on: CD4+ T cells from FIV-vaccinated cats; experiment: CFSE-proliferation, CD4+ T cells from FIV-vaccinated cats; assay type: cell-based, cat; conditions: for Proliferation (CFSE^low) CD4^+ T cells: prime 1x IWV, post-second MAP boost, peptide or MAP as culture stimulant, >2 positive
Source text: (§2) FIGS. 32A and 32B. T-cell proliferation responses to FIV p24 peptide pools by vaccinated cats. […] (FIG. 32A) and CD3^+CD8^+ (FIG. 32B) T-cell proliferation responses are shown for prototype FIV-vaccinated cats. The FIV vaccinated cats were semi-inbred cats with blue, dark red, and pink/green bars from different MHC-lineage colonies. The semi-inbred cats with light pink and green bars are from the same […] lineage. Pools Fp9 and Fp14 are recognized by both HIV^+ subjects and vaccinated cats (i.e., evolutionarily conserved [EC] epitopes) but pools Fp3 and Fp4 are not recognized by HIV^+ subjects (i.e., non-EC epitopes). The IFNγ responses of these cats were either low or below the cut-off threshold of 50 SFU/1×10^6 PBMC. The peptides that stimulated the most proliferation responses: non-EC peptide Fp4-3 in pool Fp4 and EC peptide Fp14-1 in pool Fp14 were used in in vivo study below (FIG. 34).
(§3) FIGS. 33A-33C. IFNγ and T-cell proliferation responses to Fp9 and Fp14 by the FIV-vaccinated cats and FIV-infected cats. The T cells or PBMC from 32 FIV-vaccinated cats were stimulated with either Fp9 or Fp14 and evaluated for proliferation (FIG. 33A) or IFNγ (FIG. 33B) responses. In addition, the PBMC from 32 FIV-infected cats at 22-52 weeks of infection and 20 HIV-1 p24-immunized cats were tested for IFNγ responses to the same peptide pools (FIG. 33B). Three types of laboratory cats were used in these studies: semi-inbred line 1 (Semi-Inbred 1), semi-inbred line 2 (Semi-Inbred 2), and outbred cats (Outbred) from laboratory cat vendors. Semi-inbred cats have been inbred for 3-5 generations with defined feline leukocyte antigen (FLA) alleles and are divided into two FLA haplotype lines. FIV vaccine consisted of prototype dual-subtype FIV vaccine (Coleman et al. 2014). The insert in each panel defines the numbers of each type of cats as well as vaccination (Vac.) or infection (Infect.) status. The number of cat responders used varies between the analyses performed for the individual Fp14 peptides (FIG. 33C, left for IFNγ and right for proliferation).
as §1

[5] = tested on: FIV infection of naïve cat PBMC; experiment: In vitro FIV enhancing/inhibitory (E/I) assay in PBMC from naïve SPF cats (RT titer); assay type: cell-based; conditions: PBMC from naïve cats
Experimental: FIG. 35. FIV-enhancing versus inhibitory epitopes on peptides and MAPs used in pilot MAP Study. […] Abbreviation: MAP1 plus MAP2 mix (MAP1+2).
FIG. 36A and 36B. FIV/HIV-1 enhancing versus inhibitory epitopes. […] Four epitope peptides were tested in an in vivo efficacy study with prototype vaccine prime and MAP boosts against pathogenic FIV challenge (see MAP section).
To test the possibility that Fp4-3 peptide may be enhancing FIV infection, we performed an in vitro FIV enhancing/inhibitory analysis with all MAP peptides and immunogens. […]. Since MAP2 consisted of peptides FRT3-3 and FRT3-4 with a natural overlap (FIG. 34), such overlap may have blocked the enhancing activity of peptide FRT3-3 while allowing the inhibitory activity of peptide FRT3-4. […] Moreover, none of the MAP vaccinated cats had early detection or enhancement in viral load compared to the control cats. Perhaps, the strong immunity generated by the MAP2 has blocked the enhancing activity of the MAP1 when boosted together (Group 1, Table 3). To test this possibility, in vitro study is currently undergoing to evaluate whether MAP2 can block FIV enhancing activity of MAP1. Furthermore, more cats will be vaccinated with MAP 1b and MAP2 to determine the levels of cytotoxins generated to peptides Fp14-1, FRT3-3 and FRT3-4. Since these peptides have induced CTL-associated cytotoxin expression in T cells from HIV^+ subjects (FIGS. 31A-31B; FIG. 5 in (Sanou et al. 2013)), these EC peptides may also mediate their in vivo effects by inducing anti-FIV specific CTL activity.
However, only peptide Fp4-3 correlated with the in vitro enhancement induced by MAP1. Since the in vitro E/I assay uses PBMC from naïve specific pathogen free (SPF) cats, it is unlikely that the in vitro stimulation of anti-FIV CTLs occurred in the culture and eliminated the infected cells. More likely, these enhancing or inhibitory peptides induced cytokines (enhancement: IFNγ, TNFα, GM-CSF; inhibition: IFNα, IL10), chemokines (inhibition: MIP1α, MIP1β, SDF-1, RANTES), or cellular restriction factors (inhibition: Trim5α, APOBEC3g) that either enhanced or inhibited FIV/HIV-1 infection. […] IFNγ is produced during inflammatory responses to HIV-1 infection (Ipp and Zemlin 2013). Thus, high levels of antiviral cellular immune responses are needed while minimizing both non-specific and viral-specific activation of CD4^+ T cells which can enhance viral replication (Lane 2010). Removal of the enhancing epitopes on FIV and HIV-1 immunogens will be critical to produce an effective HIV-1 vaccine. To accomplish this goal, we will design a vaccine based on antiviral epitopes directed at inducing viral-specific CD4^+ CTLs, CD8^+ CTLs and polyfunctional T cells, and identifying viral enhancing epitopes to remove from vaccine candidates.

[6] = tested on: CD3+CD8+ T cells from FIV-vaccinated cats; experiment: CFSE-proliferation, CD8+ T cells from FIV-vaccinated cats; assay type: cell-based, cat; conditions: prime 1x IWV, post-second MAP boost, peptide or MAP as culture stimulant, >2 positive
Source text: as §2, §3, §1

[7] = cat DVB, boost-1 MAP1b, boost-2 MAP1b
[8] = cat DVD, boost-1 MAP1, boost-2 MAP1
[9] = cat QVQ, boost-1 MAP1b, boost-2 MAP1b
[10] = cat QVW, boost-1 MAP1, boost-2 MAP1

Q: KWRKLVDFRELNKR [H3-4] was tested. Which “reactivity of PBMC from individual infected macaques” value [1] did it give?
A: reacted

Q: How did the “IL2 (SFU)” value [2, 7] turn out when “PTDLATLILAAPGSARVKRDQEQNTAEVKLYLK [MAP1, palmitated multiple antigenic peptide: Fp4-3/furin-sensitive-linker/Fp14-1]” was run?
A: [76] SFU/10^6 PBMC

Q: What about the “IL2 (SFU)” value [2, 8] of the same sequence?
A: [296] SFU/10^6 PBMC

Q: And the “IL2 (SFU)” value [2, 9]?
A: [165] SFU/10^6 PBMC

Q: What about the “IL2 (SFU)” value [2, 10] of the same sequence?
A: [9] SFU/10^6 PBMC

Q: And the “IFNγ (SFU)” value [3, 7]?
A: [0] SFU/10^6 PBMC

Q: And the “IFNγ (SFU)” value [3, 8]?
A: [206] SFU/10^6 PBMC

Q: What about the “IFNγ (SFU)” value [3, 9] of the same sequence?
A: [43] SFU/10^6 PBMC

Q: What about the “IFNγ (SFU)” value [3, 10] of the same sequence?
A: [0] SFU/10^6 PBMC

Q: What about the “Proliferation (CFSE^low) CD4^+ T cells” value [4, 7] of the same sequence?
A: [1]

Q: What about the “Proliferation (CFSE^low) CD4^+ T cells” value [4, 8] of the same sequence?
A: [2]

Q: And the “Proliferation (CFSE^low) CD4^+ T cells” value [4, 9]?
A: [7]

Q: And the “Proliferation (CFSE^low) CD4^+ T cells” value [4, 10]?
A: [7]

Q: And the “effect on in vitro FIV infection” value [5]?
A: significant enhancement

Q: What about the “Proliferation (CFSE^low) CD8^+ T cells” value [6, 7] of the same sequence?
A: [10]

Q: What about the “Proliferation (CFSE^low) CD8^+ T cells” value [6, 8] of the same sequence?
A: [9]

Q: And the “Proliferation (CFSE^low) CD8^+ T cells” value [6, 9]?
A: [7]

Q: What about the “Proliferation (CFSE^low) CD8^+ T cells” value [6, 10] of the same sequence?
A: [6]

Q: What does the source list for PTDMATLIMAAPGCA [Fp4-3]?
A: IL2 responses in PBMC from FIV-vaccinated cats (in words) [2]: induced predominantly; IL2 (SFU) [2, 7]: 0 SFU/10^6 PBMC; IL2 (SFU) [2, 8]: 95 SFU/10^6 PBMC; IL2 (SFU) [2, 9]: 0 SFU/10^6 PBMC; IL2 (SFU) [2, 10]: 0/0 SFU/10^6 PBMC; IFNγ responses in PBMC from FIV-vaccinated cats (in words) [3]: induced predominantly; also recorded: high levels; IFNγ (SFU) [3, 7]: 0/0 SFU/10^6 PBMC; IFNγ (SFU) [3, 8]: 132 SFU/10^6 PBMC; IFNγ (SFU) [3, 9]: 0/0 SFU/10^6 PBMC; IFNγ (SFU) [3, 10]: 21 SFU/10^6 PBMC; CD4+ T-cell proliferation in FIV-vaccinated cats (in words) [4]: induced predominantly; Proliferation (CFSE^low) CD4^+ T cells [4, 7]: 0; Proliferation (CFSE^low) CD4^+ T cells [4, 8]: 3; Proliferation (CFSE^low) CD4^+ T cells [4, 9]: 1/1; Proliferation (CFSE^low) CD4^+ T cells [4, 10]: 0; effect on in vitro FIV infection [5]: significant enhancement; also recorded: significantly enhanced; Proliferation (CFSE^low) CD8^+ T cells [6, 7]: 0; Proliferation (CFSE^low) CD8^+ T cells [6, 8]: 6; Proliferation (CFSE^low) CD8^+ T cells [6, 9]: 0; Proliferation (CFSE^low) CD8^+ T cells [6, 10]: 0

Q: WRKLVDFRE [shorter peptide of HRT3] was tested. Which “reactivity of PBMC from individual infected macaques” value [1] did it give?
A: reacted
